Results: ChEMBL document CHEMBL1201862, “PubChem BioAssay data set” (2004)
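Compound exposure: 48 hours, 5 concentrations, 96-well plates. GI50 = concentration required for 50% inhibition of growth.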 The source made the active and inactive calls. Cut-off read from the data, not from the text of the source: active = GI50 up to about 1.1 µM and inactive = higher.

Experiments:
Test in all cases: DTP human tumour cell line panel, 48 h
M19-MEL = system: M19-MEL
M14 = system: M14
MOLT-4 = system: MOLT-4
NCI-H23 = system: NCI-H23
SF-295 = system: SF-295
HCT-15 = system: HCT-15
NCI/ADR-RES = system: NCI/ADR-RES
IGROV-1 = system: IGROV-1
SK-MEL-5 = system: SK-MEL-5
SN12C = system: SN12C
HT-29 = system: HT-29
SNB-75 = system: SNB-75
SK-OV-3 = system: SK-OV-3
NCI-H522 = system: NCI-H522
Malme-3M = system: Malme-3M
DMS-114 = system: DMS-114
COLO 205 = system: COLO 205
A549 = system: A549
CCRF-CEM = system: CCRF-CEM
XF498 = system: XF498
SR = system: SR
MDA-MB-231 = system: MDA-MB-231
RPMI-8226 = system: RPMI-8226
LXFL 529 = system: LXFL 529
DMS-273 = system: DMS-273
HCC 2998 = system: HCC 2998
OVCAR-3 = system: OVCAR-3
PC-3 = system: PC-3
EKVX = system: EKVX
MDA-MB-435 = system: MDA-MB-435
OVCAR-8 = system: OVCAR-8
DU-145 = system: DU-145
UO-31 = system: UO-31
T47D = system: T47D
MDA-N = system: MDA-N
UACC-257 = system: UACC-257
OVCAR-5 = system: OVCAR-5
TK-10 = system: TK-10
HOP-92 = system: HOP-92
MCF7 = system: MCF7
Hs-578T = system: Hs-578T
K562 = system: K562
SF-268 = system: SF-268
SNB-19 = system: SNB-19
A498 = system: A498
U-251 = system: U-251
SK-MEL-28 = system: SK-MEL-28
SF-539 = system: SF-539
BT-549 = system: BT-549
786-0 = system: 786-0
UACC-62 = system: UACC-62
HCT-116 = system: HCT-116
NCI-H226 = system: NCI-H226
KM-20L2 = system: KM-20L2
SNB-78 = system: SNB-78
CAKI-1 = system: CAKI-1
RXF 393 = system: RXF 393
HL-60 = system: HL-60
SW-620 = system: SW-620
HOP-62 = system: HOP-62
ACHN = system: ACHN
NCI-H460 = system: NCI-H460
LOX IMVI = system: LOX IMVI
KM12 = system: KM12
OVCAR-4 = system: OVCAR-4
SK-MEL-2 = system: SK-MEL-2
DLD-1 = system: DLD-1

Cc1nc(Nc2ccc(Cl)c(Cl)c2)sc1C(/C=C/c1ccc2c(c1)OCO2)=N/Nc1ccc([N+](=O)[O-])cc1[N+](=O)[O-]
GI50 (M19-MEL): > 100 µM (inactive)
GI50 (M14): 61.7 µM (inactive)
GI50 (MOLT-4): > 56.2 µM (inactive)
GI50 (NCI-H23): 67.3 µM (inactive)
GI50 (SF-295): 53.3 µM (inactive)
GI50 (HCT-15): > 97.1 µM
GI50 (NCI/ADR-RES): > 100 µM (inactive)
GI50 (IGROV-1): > 100 µM (inactive)
GI50 (SK-MEL-5): > 82.8 µM (inactive)
GI50 (SN12C): > 100 µM (inactive)
GI50 (HT-29): > 100 µM (inactive)
GI50 (SNB-75): 13.2 µM (inactive)
GI50 (SK-OV-3): > 91.8 µM (inactive)
GI50 (NCI-H522): 61 µM (inactive)
GI50 (Malme-3M): > 100 µM (inactive)
GI50 (DMS-114): 51.8 µM (inactive)
GI50 (COLO 205): > 100 µM (inactive)
GI50 (A549): > 100 µM (inactive)
GI50 (CCRF-CEM): 80.9 µM (inactive)
GI50 (XF498): 13.9 µM (inactive)
GI50 (SR): > 91.4 µM (inactive)
GI50 (MDA-MB-231): > 100 µM (inactive)
GI50 (RPMI-8226): > 82.2 µM (inactive)
GI50 (LXFL 529): > 68.5 µM (inactive)
GI50 (DMS-273): 32 µM (inactive)
GI50 (HCC 2998): > 78.5 µM (inactive)
GI50 (OVCAR-3): > 100 µM (inactive)
GI50 (PC-3): > 100 µM (inactive)
GI50 (EKVX): > 100 µM (inactive)
GI50 (MDA-MB-435): > 100 µM (inactive)
GI50 (OVCAR-8): > 100 µM (inactive)
GI50 (DU-145): > 100 µM (inactive)
GI50 (UO-31): 78.2 µM (inactive)
GI50 (T47D): > 100 µM (inactive)
GI50 (MDA-N): > 100 µM (inactive)
GI50 (UACC-257): > 100 µM (inactive)
GI50 (OVCAR-5): > 100 µM (inactive)
GI50 (TK-10): 66.5 µM (inactive)
GI50 (HOP-92): 85.1 µM (inactive)
GI50 (MCF7): > 100 µM (inactive)
GI50 (Hs-578T): > 74.5 µM (inactive)
GI50 (K562): > 80.4 µM (inactive)
GI50 (SF-268): > 100 µM (inactive)
GI50 (SNB-19): 48.1 µM (inactive)
GI50 (A498): > 50.9 µM (inactive)
GI50 (U-251): 41.1 µM (inactive)
GI50 (SK-MEL-28): > 100 µM (inactive)
GI50 (SF-539): 43.8 µM (inactive)
GI50 (BT-549): > 100 µM (inactive)
GI50 (786-0): 20.1 µM (inactive)
GI50 (UACC-62): > 61.9 µM (inactive)
GI50 (HCT-116): 56.5 µM (inactive)
GI50 (NCI-H226): > 59 µM (inactive)
GI50 (KM-20L2): > 100 µM (inactive)
GI50 (SNB-78): 2.27 µM (inactive)
GI50 (CAKI-1): > 46.5 µM (inactive)
GI50 (RXF 393): 27.2 µM (inactive)
GI50 (HL-60): > 79.6 µM (inactive)
GI50 (SW-620): > 100 µM (inactive)
GI50 (HOP-62): 59.8 µM (inactive)
GI50 (ACHN): > 92 µM (inactive)
GI50 (NCI-H460): > 100 µM (inactive)
GI50 (LOX IMVI): 67 µM (inactive)
GI50 (KM12): > 88.7 µM (inactive)
GI50 (OVCAR-4): > 100 µM (inactive)
GI50 (SK-MEL-2): > 100 µM (inactive)
GI50 (DLD-1): > 100 µM (inactive)

CCCCCCn1c(SCC)c2ccccc2c1-c1nc(F)nc(F)n1
GI50 (M19-MEL): > 100 µM (inactive)
GI50 (M14): > 100 µM (inactive)
GI50 (MOLT-4): > 100 µM (inactive)
GI50 (NCI-H23): > 100 µM (inactive)
GI50 (SF-295): > 100 µM (inactive)
GI50 (HCT-15): > 100 µM
GI50 (IGROV-1): > 100 µM (inactive)
GI50 (SK-MEL-5): > 100 µM (inactive)
GI50 (SN12C): > 100 µM (inactive)
GI50 (HT-29): > 100 µM (inactive)
GI50 (SNB-75): 73.5 µM (inactive)
GI50 (SK-OV-3): > 100 µM (inactive)
GI50 (NCI-H522): > 100 µM (inactive)
GI50 (Malme-3M): > 100 µM (inactive)
GI50 (DMS-114): > 100 µM (inactive)
GI50 (COLO 205): > 100 µM (inactive)
GI50 (A549): > 100 µM (inactive)
GI50 (CCRF-CEM): 36 µM (inactive)
GI50 (XF498): > 100 µM (inactive)
GI50 (SR): 88.7 µM (inactive)
GI50 (RPMI-8226): > 100 µM (inactive)
GI50 (LXFL 529): > 100 µM (inactive)
GI50 (DMS-273): > 100 µM (inactive)
GI50 (HCC 2998): > 100 µM (inactive)
GI50 (OVCAR-3): > 100 µM (inactive)
GI50 (EKVX): > 100 µM (inactive)
GI50 (OVCAR-8): > 100 µM (inactive)
GI50 (UO-31): > 100 µM (inactive)
GI50 (UACC-257): > 100 µM (inactive)
GI50 (OVCAR-5): > 100 µM (inactive)
GI50 (TK-10): > 100 µM (inactive)
GI50 (HOP-92): > 100 µM (inactive)
GI50 (K562): > 100 µM (inactive)
GI50 (SF-268): > 100 µM (inactive)
GI50 (SNB-19): > 100 µM (inactive)
GI50 (U-251): > 100 µM (inactive)
GI50 (SK-MEL-28): > 100 µM (inactive)
GI50 (SF-539): > 100 µM (inactive)
GI50 (786-0): > 100 µM (inactive)
GI50 (HCT-116): > 100 µM (inactive)
GI50 (NCI-H226): > 100 µM (inactive)
GI50 (KM-20L2): > 100 µM (inactive)
GI50 (SNB-78): > 100 µM (inactive)
GI50 (CAKI-1): > 100 µM (inactive)
GI50 (RXF 393): > 100 µM (inactive)
GI50 (HL-60): > 100 µM (inactive)
GI50 (SW-620): > 100 µM (inactive)
GI50 (HOP-62): > 100 µM (inactive)
GI50 (ACHN): > 100 µM (inactive)
GI50 (NCI-H460): > 100 µM (inactive)
GI50 (LOX IMVI): > 100 µM (inactive)
GI50 (KM12): > 100 µM (inactive)
GI50 (OVCAR-4): > 100 µM (inactive)
GI50 (SK-MEL-2): > 100 µM (inactive)
GI50 (DLD-1): > 100 µM (inactive)
